The text below walks through data of patent publication US20200138827A1, “SMALL MOLECULE MODULATORS OF HUMAN STING” (Curadev Pharma Limited, priority 2017, published 2020).

One may read the EC50 as the concentration that produces a half-maximal response.

The target in one experiment is T1, WT/R232 STING protein (Homo sapiens, UniProt Q86WV6, H232R).
T1 construct: host or cells: HEK293T
Put plainly: Luciferase reporter assay in HEK293T-hSTING-Luciferase cells, WT/R232. Particulars: 20 hr stimulation, read-out: R232 Activity (EC50 range). It is filed as cell-based. The procedure, abridged:
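Clonal HEK293T cells stably expressing human STING R232 plus an ISRE/ISG54-driven luciferase reporter, 5×10^5 per well, stimulated with compounds for 20 h. Secreted luciferase in supernatant measured by luminescence; […].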

The target of the next experiment is T2, hSTING(H232) (Homo sapiens, UniProt Q86WV6).
T2 construct: host or cells: HEK293T
T2 sequence (Q86WV6 whole entry): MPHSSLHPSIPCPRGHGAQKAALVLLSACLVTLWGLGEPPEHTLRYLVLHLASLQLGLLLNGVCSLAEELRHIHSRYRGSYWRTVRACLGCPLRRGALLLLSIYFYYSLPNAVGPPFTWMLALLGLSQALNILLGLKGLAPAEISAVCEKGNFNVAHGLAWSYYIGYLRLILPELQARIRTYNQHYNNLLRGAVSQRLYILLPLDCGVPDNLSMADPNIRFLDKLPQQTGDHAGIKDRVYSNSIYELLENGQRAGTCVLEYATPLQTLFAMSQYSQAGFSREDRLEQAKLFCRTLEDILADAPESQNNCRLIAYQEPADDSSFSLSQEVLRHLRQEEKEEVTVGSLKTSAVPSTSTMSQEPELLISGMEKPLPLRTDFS
Description: Luciferase reporter assay in HEK293T-hSTING-Luciferase cells, H232 polymorph. The class given is cell-based. The note with it: 20 hr stimulation, read-out: H232 activity (EC50 range). The source says:
(§1) • a) Stable STING expressing cells—Stable HEK293T STING-expressing cell lines were generated using plasmids purchased from Invivogen, Calif., USA, that contain STING cDNA cloned into the pUNO-1 vector under hEF1-HTLV promoter and containing the Blasticidin selection cassette. The plasmids hSTING(R232), hSTING(H232), hSTING(HAQ) were directly procured from Invivogen while hSTING (AQ) and hSTING (Q) were derived from hSTING(HAQ) and hSTING (R232) plasmids respectively by using a PCR based site directed mutagenesis method. These vectors were individually transfected into HEK293T cells using Lipofectamine (Invitrogen) and transfected cells were selected under Blasticidin selection. These transfected cells were further subjected to clonal selection using the limiting dilution method to obtain clonally pure populations of HEK cells transfected with each of the above mentioned human STING variants. Only those clones were selected in which ligand independent activation of STING was minimal. • b) Stable Luciferase reporter gene expressing cells—Stable HEK293T Luciferase reporter gene expressing cell lines were generated using pCDNA4 plasmids under an IRF-inducible promoter. This promoter is comprised of five tandem interferon-stimulated response elements (ISRE) fused to an ISG54 minimal promoter. This vector was transfected into HEK293T cells using Lipofectamine (Invitrogen) and transfected cells were selected under Zeocin selection. These transfected cells were further subjected to clonal selection using the limiting dilution method to obtain clonally pure populations of HEK cells transfected the Luciferase reporter construct. Only those clones were selected in which ligand independent induction of luciferase was minimal.
(§2) 5×10^5 clonally selected HEK293T-hSTING-Luciferase cells were seeded in 384-well plates in growth medium and stimulated with novel compounds. After 20 hr of stimulation supernatant were removed and secretary reporter gene activity were measured using the Quanti-Luc detection system (Invivogen) on a Spectramax i3X luminometer.
(§3) The 5 major polymorphisms of human STING are shown in FIG. 1, with their prevalence in human populations indicated.
For orientation: Reporter assays use an easily measured gene product as a stand-in for the process of interest.

The target of a further experiment is T3, hSTING(HAQ) (Homo sapiens, UniProt Q86WV6, G230A/H232R/R293Q/R71H).
T3 construct: host or cells: HEK293T
T3 sequence (Q86WV6 whole entry R71H/G230A/H232R/R293Q): as the sequence (Q86WV6 whole entry) above, with R71H, G230A, H232R, R293Q counted along it
Put plainly: Luciferase reporter assay in HEK293T-hSTING-Luciferase cells, HAQ polymorph. Particulars: 20 hr stimulation, read-out: HAQ activity (EC50 range). It is filed as cell-based.
Excerpt: as §1, §2, §3

Another experiment relates to IRF pathway. Put plainly: Reporter gene expression assay in THP1-Dual cells, IRF axis (secreted Lucia luciferase). The class given is cell-based, human. The note with it: read-out: THP-IRF activity (EC50 range). How it is done:
(§4) THP1-Dual™ cells (Invivogen) were derived from the human THP-1 monocyte cell line by stable integration of two inducible reporter constructs. As a result, THP1-Dual™ cells allow the simultaneous study of the NF-κB pathway, by monitoring the activity of secreted SEAP, and the IRF pathway, by assessing the activity of a secreted luciferase (Lucia). […] THP1-Dual™ cells were seeded in 384-well plates in growth medium and stimulated with novel compounds. After […] of stimulation supernatant were removed and reporter proteins were readily measured in the cell culture supernatant using QUANTI-Blue™ (Invivogen), a SEAP detection reagent, and QUANTI-Luc™ (Invivogen), a luciferase detection reagent on a Spectramax i3X luminometer.

The subject of the next experiment is NF-κB pathway. Description: Reporter gene expression assay in THP1-Dual cells, NFkB axis (secreted SEAP). The class given is cell-based, human. Particulars: Homo sapiens, THP1-Dual, read-out: THP-NFKB activity (EC50 range). The procedure: as §4

Like-named read-outs stand apart in the source and are kept apart here.

T1 sequence (Q86WV6 whole entry H232R): as the sequence (Q86WV6 whole entry) above, with H232R counted along it

In the case of `O=C(NCc1c(F)cccc1F)c1ccc2c(c1)N(Cc1c(F)cccc1Cl)C(=O)CS2` [Example 31, 4-(2-chloro-6-fluorobenzyl)-N-(2,6-difluorobenzyl)-3-oxo-3,4-dihydro-2H-benzo[b-1,4]thiazine 6-carboxamide], the EC50 at WT/R232 STING protein was less than 1 µM; on hSTING(H232), less than 1 µM; at hSTING(HAQ) it was 1 to 10 µM; with IRF pathway (Homo sapiens, THP1-Dual), greater than 10 µM; with NF-κB pathway, greater than 10 µM.
As to `O=C(NCc1ccc(F)cc1F)c1ccc2c(c1)N(Cc1c(F)cccc1Cl)C(=O)CS2` [Example 34, 4-(2-chloro-6-fluorobenzyl)-N-(2,4-difluorobenzyl)-3-oxo-3,4-dihydro-2H-benzo[b-1,4]thiazine-6-carboxamide], the 50% effective concentration (EC50) on WT/R232 STING protein was less than 1 µM; at hSTING(H232), less than 1 µM; at hSTING(HAQ) it was 1 to 10 µM; in the experiment on IRF pathway (Homo sapiens, THP1-Dual) it was greater than 10 µM; in the experiment with NF-κB pathway, greater than 10 µM.
As to `Cc1cccc(CNC(=O)c2ccc3c(c2)N(Cc2c(F)cccc2Cl)C(=O)CS3)c1` [Example 37, 4-(2-chloro-6-fluorobenzyl)-N-(3-methylbenzyl)-3-oxo-3,4-dihydro-2H-benzo[b-1,4]thiazine-6-carboxamide], the concentration for a half-maximal effect (EC50) at WT/R232 STING protein was less than 1 µM; on hSTING(H232) it was 1 to 10 µM; on hSTING(HAQ), greater than 10 µM; in the experiment on IRF pathway (Homo sapiens, THP1-Dual), greater than 10 µM; with NF-κB pathway it was greater than 10 µM.
Take `O=C(NCc1c(F)cc(F)cc1F)c1ccc2c(c1)N(Cc1ccncc1)C(=O)CS2` [Example 39, 3-oxo-4-(pyridin-4-ylmethyl)-N-(2,4,6-trifluoro-benzyl)-3,4-dihydro-2H-benzo[b-1,4]thiazine-6-carboxamide]: the EC50 on WT/R232 STING protein was 1 to 10 µM; at hSTING(H232), 1 to 10 µM; at hSTING(HAQ) it was 1 to 10 µM; in the experiment with IRF pathway (Homo sapiens, THP1-Dual), greater than 10 µM; in the experiment on NF-κB pathway, greater than 10 µM.
In the case of `O=C(NCc1cc2ccccc2o1)c1ccc2c(c1)N(Cc1c(F)cccc1Cl)C(=O)CS2` [Example 40, N-(benzofuran-2-ylmethyl)-4-(2-chloro-6-fluorobenzyl)-3-oxo-3,4-dihydro-2H-benzo[b-1,4]thiazine-6-carboxamide], the concentration giving a half-maximal response (EC50) on WT/R232 STING protein was less than 1 µM; on hSTING(H232), 1 to 10 µM; at hSTING(HAQ), 1 to 10 µM; in the experiment on IRF pathway (Homo sapiens, THP1-Dual), 1 to 10 µM; with NF-κB pathway, 1 to 10 µM.
In the case of `O=C(NCc1cc2ccccc2o1)c1ccc2c(c1)N(Cc1ccccc1)C(=O)CS2` [Example 69, N-(benzofuran-2-ylmethyl)-4-benzyl-3-oxo-3,4-dihydro-2H-benzo[b-1,4]thiazine-6-carboxamide], the EC50 was 1 to 10 µM at WT/R232 STING protein; 1 to 10 µM at hSTING(H232); 1 to 10 µM on hSTING(HAQ); greater than 10 µM in the experiment with IRF pathway (Homo sapiens, THP1-Dual); greater than 10 µM with NF-κB pathway.
As to `O=C(NCc1ccco1)c1ccc2c(c1)N(Cc1cccc(F)c1F)C(=O)CS2` [Example 82, 4-(2,3-difluorobenzyl)-N-(furan-2-ylmethyl)-3-oxo-3,4-dihydro-2H-benzo[b-1,4]thiazine-6-carboxamide], the 50% effective concentration (EC50) at WT/R232 STING protein was 1 to 10 µM; on hSTING(H232), 1 to 10 µM; on hSTING(HAQ) it was 1 to 10 µM; in the experiment with IRF pathway (Homo sapiens, THP1-Dual) it was greater than 10 µM; in the experiment on NF-κB pathway it was greater than 10 µM.
`Cc1cc(CN2C(=O)CSc3ccc(C(=O)NCc4ccco4)cc32)cc(C(F)(F)F)c1` [Example 83, N-(furan-2-ylmethyl)-4-(3-methyl-5-(trifluoromethyl)benzyl)-3-oxo-3,4-dihydro-2H-benzo[b-1,4]thiazine-6-carboxamide]: the EC50 was 1 to 10 µM on WT/R232 STING protein; greater than 10 µM at hSTING(H232); greater than 10 µM on hSTING(HAQ); greater than 10 µM in the experiment with IRF pathway (Homo sapiens, THP1-Dual); greater than 10 µM in the experiment with NF-κB pathway.
Take `O=C(NCc1ccco1)c1ccc2c(c1)N(Cc1cc(F)cc(F)c1)C(=O)CS2` [Example 87, 4-(3,5-difluorobenzyl)-N-(furan-2-ylmethyl)-3-oxo-3,4-dihydro-2H-benzo[b][1,4] thiazine-6-carboxamide]: the EC50 at WT/R232 STING protein is less than 1 µM; at hSTING(H232) it was 1 to 10 µM; at hSTING(HAQ) it was greater than 10 µM; in the experiment on IRF pathway (Homo sapiens, THP1-Dual), greater than 10 µM; in the experiment with NF-κB pathway, greater than 10 µM.
With `O=C(NCc1ccco1)c1ccc2c(c1)N(Cc1c(Cl)cccc1Cl)C(=O)CS2` [Example 93, 4-(2,6-dichlorobenzyl)-N-(furan-2-ylmethyl)-3-oxo-3,4-dihydro-2H-benzo[b-1,4]thiazine-6-carboxamide], the EC50 on WT/R232 STING protein is 1 to 10 µM; on hSTING(H232), 1 to 10 µM; on hSTING(HAQ), greater than 10 µM; in the experiment with IRF pathway (Homo sapiens, THP1-Dual) it was greater than 10 µM; in the experiment with NF-κB pathway it was greater than 10 µM.
Take `O=C(NCc1c(F)cc(F)cc1F)c1ccc2c(c1)N(Cc1c(F)cccc1Cl)C(=O)CS2` [Example 112, 4-(2-chloro-6-fluorobenzyl)-3-oxo-N-(2,4,6-trifluorobenzyl)-3,4-dihydro-2H-benzo[b-1,4]thiazine-6-carboxamide]: the concentration for a half-maximal effect (EC50) on WT/R232 STING protein is less than 1 µM; on hSTING(H232) it was less than 1 µM; on hSTING(HAQ), less than 1 µM; in the experiment on IRF pathway (Homo sapiens, THP1-Dual), greater than 10 µM; in the experiment with NF-κB pathway it was greater than 10 µM.
Consider `O=C(NCc1ccccc1)c1ccc2c(c1)N(Cc1ccccc1)C(=O)CS2` [Example 118, N,4-dibenzyl-3-oxo-3,4-dihydro-2H-benzo[b-1,4]thiazine-6-carboxamide], for which the half-maximal effective concentration (EC50) was 1 to 10 µM on WT/R232 STING protein; 1 to 10 µM on hSTING(H232); greater than 10 µM on hSTING(HAQ); greater than 10 µM in the experiment on IRF pathway (Homo sapiens, THP1-Dual); greater than 10 µM with NF-κB pathway.
As to `O=C(NCc1ccco1)c1ccc2c(c1)N(Cc1ccc(F)cc1)C(=O)CS2` [Example 120, 4-(4-fluorobenzyl)-N-(furan-2-ylmethyl)-3-oxo-3,4-dihydro-2H-benzo[b-1,4]thiazine-6-carboxamide], the EC50 was 1 to 10 µM on WT/R232 STING protein; 1 to 10 µM at hSTING(H232); greater than 10 µM at hSTING(HAQ); greater than 10 µM in the experiment with IRF pathway (Homo sapiens, THP1-Dual); greater than 10 µM in the experiment on NF-κB pathway.
Consider `O=C(NCc1ccc(F)cc1)c1ccc2c(c1)N(Cc1c(F)cccc1Cl)C(=O)CS2` [Example 127, 4-(2-chloro-6-fluorobenzyl)-N-(4-fluorobenzyl)-3-oxo-3,4-dihydro-2H-benzo[b-1,4]thiazine-6-carboxamide], for which the EC50 on WT/R232 STING protein is 1 to 10 µM; at hSTING(H232) it was 1 to 10 µM; on hSTING(HAQ), 1 to 10 µM; in the experiment with IRF pathway (Homo sapiens, THP1-Dual), greater than 10 µM; in the experiment on NF-κB pathway, greater than 10 µM.
Regarding `O=C(NCc1ccco1)c1ccc2c(c1)N(Cc1c(F)cccc1Cl)C(=O)CS2` [Example 131, 4-(2-chloro-6-fluorobenzyl)-N-(furan-2-ylmethyl)-3-oxo-3,4-dihydro-2H-benzo[b][1,4]thiazine-6-carboxamide], the EC50 was 1 to 10 µM at WT/R232 STING protein; 1 to 10 µM on hSTING(H232); greater than 10 µM at hSTING(HAQ); greater than 10 µM with IRF pathway (Homo sapiens, THP1-Dual); greater than 10 µM with NF-κB pathway.
Consider `CC1Sc2ccc(C(=O)NCc3c(F)cc(F)cc3F)cc2N(Cc2cnn(C)c2)C1=O` (centres unmarked) [Example 133, 2-methyl-N-2,4,6-trifluorobenzyl-4-[(1-methyl-1H-pyrazol-4-yl)methyl]-3-oxo-3,4-dihydro-2H-1,4-benzothiazine-6-carboxamide], for which the EC50 is 1 to 10 µM on WT/R232 STING protein; 1 to 10 µM on hSTING(H232); 1 to 10 µM on hSTING(HAQ); greater than 10 µM with IRF pathway (Homo sapiens, THP1-Dual); 1 to 10 µM in the experiment on NF-κB pathway.
Regarding `CC1Sc2ccc(C(=O)NCc3c(F)cc(F)cc3F)cc2N(Cc2ccccc2F)C1=O` (centres unmarked) [Example 142, 4-(2-fluorobenzyl)-2-methyl-3-oxo-N-(2,4,6-trifluorobenzyl)-3,4-dihydro-2H-benzo[b-1,4]thiazine-6-carboxamide], the concentration for a half-maximal effect (EC50) was less than 1 µM on hSTING(H232), less than 1 µM on hSTING(HAQ) and 1 to 10 µM in the experiment with IRF pathway.
